The test system of this test is ILC2s. In words: In vitro activation of purified ILC2s, type 2 cytokine protein by intracellular staining. The format is cell-based, mouse. Here is the method: FIGS. 10a-10d: FIG. 10a, Ki67 expression in intestinal ILC2s after an overnight in vitro stimulation with NmU23 alone (100 ng/mL, Phoenix Pharmaceutical) or NmU23 together with the survival cytokines Interleukin (IL)-2 and/or IL-7 (10 ng/mL). FIG. 10b, Ki67 expression in intestine ILC2 after in vivo administration of NmU23 (4 g/day during 2 days). n=5. FIG. 10c, ILC2-derived type 2 cytokines (IL-5, IL-13 and Amphiregulin (Areg)) in sorted intestine ILC2 after an overnight stimulation with NmU23, mouse recombinant IL-25 or IL-33 (R&D) (10, 50 and 100 ng/mL). Negative control: unstimulated ILC2, Positive control: ILC2 activated with phorbol 12-myristate 13-acetate (PMA, 50 ng/ml) plus ionomycin (500 ng/ml). n=3. FIG. 10d, Dot plots representative of the cytokine production with increasing dose of NmU23, rIL-25 and rIL-33. *P<0.05; **P<0.01; ***P<0.001; ****P<0.0001; ns not significant.
For in vitro experiments, purified lung and small intestine lamina propria ILC2s were FBS starved for 2 hours prior to stimulation and cultured in complete RPMI (supplemented with 10% foetal bovine serum (FBS), 1% hepes, sodium pyruvate, glutamine, streptomycin and penicillin) at 37° C. For mRNA analysis, ILC2s were stimulated overnight with recombinant mouse Neuromedin U 23 peptide (NmU23, 100 ng/mL; Phoenix pharmaceuticals). Both NmU23-stimulated and control ILC2s were cultured in the presence of IL-2 and IL-7 (10 ng/mL; Peprotech). ILC2s were lysed using RLT buffer (Qiagen). For cytokine protein analysis, ILC2s were incubated exclusively with brefeldin A (eBioscience) for 12 hours prior to intracellular staining. For in vivo experiments, B6 mice were injected intraperitoneal with NmU23 peptide (2 g/day) during Nippostrongylus brasiliensis infection or with a single dose of NmU23 (20 μg) and analyzed after 8 hours. Control mice were treated with PBS alone.
Intracellular staining was performed using IC fixation/permeabilization kit (eBioscience). Flow cytometry analysis and cell sorting were performed using BD LSRFORTESSA and BD FACSAria flow cytometers (BD Biosciences). […]

“Neuromedin U (FKAEYQSPSVGQSKGYFLFRPRN) [NmU]”: the “up-regulation of innate type 2 cytokines relative to PMA-ionomycin positive control” value (PMA 50 ng/ml plus ionomycin 500 ng/ml, sorted intestine ILC2, overnight) was “comparable to the effects observed with PMA-ionomycin activation”. In addition, the “expression of innate IL-5 and IL-13 compared to IL-33 and IL-25” value (sorted intestine ILC2, overnight, 10, 50 and 100 ng/mL (FIGS. 10c,10d)) is “prompt, and very robust expression”.

Values taken from US20190358264A1, “METHODS OF TREATING DISEASES ASSOCIATED WITH ILC2 CELLS” (Limm Therapeutics, SA, priority 2016, published 2019).
